In publication PMC9516332 (Frontiers in Oncology, 2022):
Like-named read-outs stand apart in the source and are kept apart here.

Key:
Assay in all cases: Kinase panel profiling at 1 µmol/L (MSA or IMAP), percentage inhibition
Type in all cases: biochemical
[1] = target: panel of 255 wild-type kinases (Homo sapiens, UniProt P54646); settings: read-out: %-inhibition AMPKα2/β1/γ1
[2] = target: panel of 255 wild-type kinases (Homo sapiens, UniProt O96013); settings: read-out: %-inhibition, PAK4
[3] = target: panel of 255 wild-type kinases (Homo sapiens, UniProt P00533); settings: read-out: %-inhibition at 1 µmol/L, EGFR
[4] = target: panel of 255 wild-type kinases (Homo sapiens, UniProt Q13164); settings: read-out: %-inhibition at 1 µmol/L, Erk5
[5] = target: T1, panel of 255 wild-type kinases (Homo sapiens, UniProt Q96PN8); settings: read-out: %-inhibition at 1 µmol/L, TSSK3
T1 sequence (Q96PN8 1-268): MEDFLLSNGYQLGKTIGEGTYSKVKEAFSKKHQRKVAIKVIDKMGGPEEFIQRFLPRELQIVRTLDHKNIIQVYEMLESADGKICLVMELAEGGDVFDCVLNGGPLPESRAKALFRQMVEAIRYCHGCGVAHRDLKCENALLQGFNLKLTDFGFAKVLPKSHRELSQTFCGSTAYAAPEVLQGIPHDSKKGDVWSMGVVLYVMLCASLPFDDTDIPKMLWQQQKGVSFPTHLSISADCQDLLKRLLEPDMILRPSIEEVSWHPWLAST

[6] = target: panel of 255 wild-type kinases (Homo sapiens, UniProt O96017); settings: read-out: %-inhibition CHK2
[7] = target: panel of 255 wild-type kinases (Homo sapiens, UniProt Q96SB4); settings: read-out: %-inhibition at 1 µmol/L, SRPK1
[8] = target: panel of 255 wild-type kinases (Homo sapiens, UniProt P11362); settings: read-out: %-inhibition at 1 µmol/L, FGFR1
[9] = target: panel of 255 wild-type kinases (Homo sapiens, UniProt O75676); settings: read-out: %-inhibition, MSK2
[10] = target: panel of 255 wild-type kinases (Homo sapiens, UniProt Q9Y463); settings: read-out: %-inhibition at 1 µmol/L, DYRK1B
[11] = target: panel of 255 wild-type kinases (Homo sapiens, UniProt P16234); settings: read-out: %-inhibition at 1 µmol/L, PDGFRα
[12] = target: panel of 255 wild-type kinases (Homo sapiens, UniProt P27448); settings: read-out: %-inhibition, MARK3
[13] = target: panel of 255 wild-type kinases (Homo sapiens, UniProt Q16816); settings: read-out: %-inhibition at 1 µmol/L, PHKG1
[14] = target: panel of 255 wild-type kinases (Homo sapiens, UniProt Q13555); settings: read-out: %-inhibition CaMK2γ
[15] = target: panel of 255 wild-type kinases (Homo sapiens, UniProt P24941)
[16] = target: panel of 255 wild-type kinases (Homo sapiens, UniProt Q9Y2H1); settings: read-out: %-inhibition, NDR2
[17] = target: panel of 255 wild-type kinases (Homo sapiens, UniProt P49840); settings: read-out: %-inhibition at 1 µmol/L, GSK3α
[18] = target: panel of 255 wild-type kinases (Homo sapiens, UniProt Q13557); settings: read-out: %-inhibition CaMK2δ
[19] = target: panel of 255 wild-type kinases (Homo sapiens, UniProt Q02763); settings: read-out: %-inhibition at 1 µmol/L, TIE2
[20] = target: panel of 255 wild-type kinases (Homo sapiens, UniProt P42685); settings: read-out: %-inhibition at 1 µmol/L, FRK
[21] = AMPKα2/β1/γ1 kinase assay, 1 µmol/L single concentration
[22] = PAK4, 1 µmol/L single concentration
[23] = kinase EGFR, 1 µmol/L single concentration
[24] = kinase Erk5, 1 µmol/L single concentration
[25] = kinase TSSK3, 1 µmol/L single concentration
[26] = CHK2 kinase assay, 1 µmol/L single concentration
[27] = kinase SRPK1, 1 µmol/L single concentration
[28] = kinase FGFR1, 1 µmol/L single concentration
[29] = MSK2, 1 µmol/L single concentration
[30] = kinase DYRK1B, 1 µmol/L single concentration
[31] = kinase PDGFRα, 1 µmol/L single concentration
[32] = MARK3, 1 µmol/L single concentration
[33] = kinase PHKG1, 1 µmol/L single concentration
[34] = CaMK2γ kinase assay, 1 µmol/L single concentration
[35] = CDK2/CycA2 kinase assay, 1 µmol/L single concentration, read-out: %-inhibition CDK2/CycA2
[36] = CDK2/CycE1 kinase assay, 1 µmol/L single concentration, read-out: %-inhibition CDK2/CycE1
[37] = NDR2, 1 µmol/L single concentration
[38] = kinase GSK3α, 1 µmol/L single concentration
[39] = CaMK2δ kinase assay, 1 µmol/L single concentration
[40] = kinase TIE2, 1 µmol/L single concentration
[41] = kinase FRK, 1 µmol/L single concentration

**Q.** Which results are given for `Cc1nc(NC(=O)N2CCC[C@H]2C(N)=O)sc1-c1ccnc(C(C)(C)C(F)(F)F)c1` [alpelisib]?
**A.** inhibition at 1 µM [1, 21]: 2.22%; inhibition at 1 µM [2, 22]: 0.0966%; inhibition at 1 µM [3, 23]: 2%; inhibition at 1 µM [4, 24]: 0.367%; inhibition at 1 µM [5, 25]: 0.673%; inhibition at 1 µM [6, 26]: -1.14%; inhibition at 1 µM [7, 27]: 6%; inhibition at 1 µM [8, 28]: 4.29%; inhibition at 1 µM [9, 29]: 0.0558%; inhibition at 1 µM [10, 30]: 8%; inhibition at 1 µM [11, 31]: 0.405%; inhibition at 1 µM [12, 32]: 11%; inhibition at 1 µM [13, 33]: -1.22%; inhibition at 1 µM [14, 34]: 0.455%; inhibition at 1 µM [15, 35]: -2.39%; inhibition at 1 µM [15, 36]: -10%; inhibition at 1 µM [16, 37]: -2%; inhibition at 1 µM [17, 38]: -2.64%; inhibition at 1 µM [18, 39]: 0.814%; inhibition at 1 µM [19, 40]: -0.712%; inhibition at 1 µM [20, 41]: -2.26%

**Q.** Which inhibition at 1 µM [1, 21] does the source give for `Cn1cnc2c(F)c(Nc3ccc(Br)cc3F)c(C(=O)NOCCO)cc21` [binimetinib] here?
**A.** -3.67%

**Q.** And the inhibition at 1 µM [2, 22]?
**A.** -2.71%

**Q.** What about the inhibition at 1 µM [3, 23] of the same compound?
**A.** 9%

**Q.** And the inhibition at 1 µM [4, 24]?
**A.** -0.05%

**Q.** And the inhibition at 1 µM [5, 25]?
**A.** 2.62%

**Q.** And the inhibition at 1 µM [6, 26]?
**A.** 4.21%

**Q.** And the inhibition at 1 µM [7, 27]?
**A.** -3.37%

**Q.** What about the inhibition at 1 µM [8, 28] of the same compound?
**A.** 2%

**Q.** What about the inhibition at 1 µM [9, 29] of the same compound?
**A.** -3.65%

**Q.** What about the inhibition at 1 µM [10, 30] of the same compound?
**A.** -7%

**Q.** What about the inhibition at 1 µM [11, 31] of the same compound?
**A.** 2%

**Q.** And the inhibition at 1 µM [12, 32]?
**A.** 7%

**Q.** And the inhibition at 1 µM [13, 33]?
**A.** 1.77%

**Q.** What about the inhibition at 1 µM [14, 34] of the same compound?
**A.** -3.65%

**Q.** And the inhibition at 1 µM [15, 35]?
**A.** 2.3%

**Q.** What about the inhibition at 1 µM [15, 36] of the same compound?
**A.** -14%

**Q.** And the inhibition at 1 µM [16, 37]?
**A.** -1.45%

**Q.** What about the inhibition at 1 µM [17, 38] of the same compound?
**A.** -2.8%

**Q.** And the inhibition at 1 µM [18, 39]?
**A.** -4%

**Q.** What about the inhibition at 1 µM [19, 40] of the same compound?
**A.** 2.63%

**Q.** What about the inhibition at 1 µM [20, 41] of the same compound?
**A.** 3%

**Q.** What does the source list for `CNC(=O)c1ccc(-c2cnc3ncc(Cc4ccc5ncccc5c4)n3n2)cc1F` [capmatinib]?
**A.** inhibition at 1 µM [1]: -1.21%; inhibition at 1 µM [2]: 1%; inhibition at 1 µM [3]: 17%; inhibition at 1 µM [4]: -3%; inhibition at 1 µM [5]: -7%; inhibition at 1 µM [6]: -1.52%; inhibition at 1 µM [7]: -6%; inhibition at 1 µM [8]: -0.662%; inhibition at 1 µM [9]: 1.25%; inhibition at 1 µM [10]: 1.71%; inhibition at 1 µM [11]: 18%; inhibition at 1 µM [12]: -0.936%; inhibition at 1 µM [13]: -2.39%; inhibition at 1 µM [14]: -1.68%; inhibition at 1 µM ([15]; read-out: %-inhibition CDK2/CycA2): 1.63%; inhibition at 1 µM ([15]; read-out: %-inhibition CDK2/CycE1): -47%; inhibition at 1 µM [16]: -5.51%; inhibition at 1 µM [17]: -0.492%; inhibition at 1 µM [18]: -1.07%; inhibition at 1 µM [19]: -3.44%; inhibition at 1 µM [20]: -2%

**Q.** Which results are given for `COc1cc2ncnc(Nc3ccc(F)c(Cl)c3)c2cc1NC(=O)/C=C/CN1CCCCC1` [dacomitinib]?
**A.** inhibition at 1 µM [1, 21]: -3%; inhibition at 1 µM [2, 22]: -3.66%; inhibition at 1 µM [3, 23]: 103%; inhibition at 1 µM [4, 24]: 0.172%; inhibition at 1 µM [5, 25]: 3%; inhibition at 1 µM [6, 26]: 23%; inhibition at 1 µM [7, 27]: -9.5%; inhibition at 1 µM [8, 28]: 8%; inhibition at 1 µM [9, 29]: 6%; inhibition at 1 µM [10, 30]: 7%; inhibition at 1 µM [11, 31]: 69%; inhibition at 1 µM [12, 32]: 10%; inhibition at 1 µM [13, 33]: 25%; inhibition at 1 µM [14, 34]: 2.37%; inhibition at 1 µM [15, 35]: -13%; inhibition at 1 µM [15, 36]: -16%; inhibition at 1 µM [16, 37]: -1.58%; inhibition at 1 µM [17, 38]: 1.45%; inhibition at 1 µM [18, 39]: 9%; inhibition at 1 µM [19, 40]: 16%; inhibition at 1 µM [20, 41]: 70%
